This is an account of results in patent US20090010979A1, “Method of Controlling Termites” (BAYER CROPSCIENCE LP, priority 2004, published 2009).

SMILES strings stand for the structures.

This data set in a line: Arrestant composition on silica with Premise 75WP distributed in soil: movement of components. Format: physicochemical. To be noted: after several months. The protocol:
(A) Preparation of the arrestant composition: A mixture of 5-methylpentacosane, 11-methylpentacosane, 9-Z-pentacosene, n-pentacosane, and n-hexamethylcosane in proportion of about 11.4:36.3:19.6:27.7:5.0 as a 0.06% (by weight) solution in acetone (0.06 g) was diluted into acetone and mixed with 149.4 g of Zeolex® 7A brand silica (J.M. Huber, Inc. USA) The acetone was removed by evaporation at 50° C. at 3.5 mm Hg to provide a smooth flowable powder. The powder was mixed with 850 g of Premise® 75WP (imidacloprid active ingredient), and milled to a consistent appearance.
(B) Use of the Arrestant Composition of Part (A): The final product is distributed in soil.

With `O=[N+]([O-])NC1=NCCN1Cc1ccc(Cl)nc1` [imidacloprid], the movement in soil entry is on record as “moves downward”.
